Tests used:
[1] = tested on: protease activity of human serum; assay: Effect of E64 and CA-074 on the protease activities of human sera with and without treatment by immobilised papain (AFC method); assay type: biochemical; settings: two normal human sera; for protease activity of sera after pre-treatment with immobilised papain, effect of inhibitor: pre-treated with immobilised papain; for small proteolytic activity of sera without pre-treatment, effect of inhibitor: without pre-treatment with immobilised papain
Procedure: FIG. 7 Effect of the inhibitors E64 and CA074 on the activity of purified cathepsin B or the protease activities of sera with and without treatment by immobilised papain. The tests were carried out with the AFC method.
(§1) The measurement of the fluorescence was done with 96-well microtiter plates by means of a fluorescence reader (for measurements with AMC: excitation at 355 nm, fluorescence at 450 nm) (for measurements with AFC: excitation at 400 nm, fluorescence at 508 nm).
(§2) In the AFC-method the assay run for the measurement of the activity was carried out in test samples at 37° C. The content of the test sample was transferred into the microtiter plate just before the measurement of the fluorescence.
The enzymatic activities of cathepsin B in small concentrations were measured of two “normal” human sera with and without pre-treatment with immobilised papain (FIG. 7).

[2] = target: T1, cathepsin B (Bos taurus, UniProt P07688); assay: Inhibition of cathepsin B by cystatin A; assay type: biochemical, bovine; settings: 700 nM cystatin A; 5 and 10 ng cathepsin B per assay run
T1 construct: cathepsin B (purified from the bovine spleen, 10 units/ml) was used in the test; from tissue; host or cells: bovine spleen
Excerpt: a1. Introduction: The activity measurement of cathepsin B is based on the cleavage of a dipeptide substrate • Z-Arg-Arg-fluorophore→Z-Arg-Arg+fluorophore (Z=protecting group, Arg=basic amino acid arginine)
as §1, §2
The inhibition of cathepsin B by the known inhibitor cystatin A was tested in vitro with two different cathepsin B concentrations.

Row | Molecule | protease activity of sera after pre-treatment with immobilised papain, effect of inhibitor [1] | small proteolytic activity of sera without pre-treatment, effect of inhibitor [1] | inhibition of cathepsin B [2] [%]
1 | CCCNC(=O)[C@H]1O[C@@H]1C(=O)N[C@H](C(=O)N1CCC[C@H]1C(=O)O)[C@@H](C)CC [CA-074] | reduced this activity to the value which was measured in the samples not pre-treated | inhibited neither | 
2 | CC(C)C[C@H](NC(=O)[C@H]1O[C@@H]1C(=O)O)C(=O)NCCCCN=C(N)N [E64] | reduced this activity to the value which was measured in the samples not pre-treated | inhibited neither | 
3 | cystatin A: known protein inhibitor of cathepsin B (protein, UniProt P01040 1-98, looked up) Cystatin-A: MIPGGLSEAKPATPEIQEIVDKVKPQLEEKTNETYGKLEAVQYKTQVVAGTNYYIKVRAGDNKYMHLKVFKSLPGQNEDLVLTGYQVDKNKDDELTGF |  |  | > 95

From patent US20100267054A1, “Measuring The Activity Of Proteases” (priority 2007, published 2010)
